Laboratory results as given in patent US8545876B1, “Modified drugs for use in liposomal nanoparticles” (The University of British Columbia, priority 2008, dated 2013).
In brackets after ≈: the same amount, converted by molar mass.

Key:
[1] = Chemical (hydrolytic) stability in buffered aqueous solutions; assay type: physicochemical; details: 24 hour incubation in pH 7.4 buffer, 37° C.
[2] = as above; assay type: physicochemical; details: 24 hour incubation in pH 4 buffer, 37° C.
Procedure: (§1) The chemical stability of the docetaxel derivatives was determined in aqueous solutions at different pH values and temperatures, and in biological media (mouse plasma). Aliquots of the docetaxel derivatives in acetonitrile were mixed with buffered citrate/HEPES (10 mM/10 mM) solutions at pH 4.0 and 7.5, or in mouse plasma in 1 mL glass HPLC sample vials sealed with Teflon-lined caps (final volume 0.25 ml, final docetaxel derivative concentration 50 µg/ml). Drug stability was determined 1, 4 and 24 hrs after incubation at 37° C. by UPLC-UV. At the indicated time points, a 3-fold excess of methanol/0.1% TFA was added to the sample. Citrate/HEPES buffered samples were analyzed by UHPLC as described above. For plasma samples, proteins precipitated by the addition of methanol/0.1% TFA pelleted by centrifugation at 14,000×g and supernatants were analyzed for the drug derivatives. Heparanized mouse plasma was diluted to 50% with 100 mM sodium-phosphate buffer to keep the pH constant throughout the experiment.
(§2) To be suitable for formulation in LN, derivatives must be stable at pH 4 (the pH present inside the LN carrier). In addition, prodrug derivatives should readily form the active drug under physiological conditions (e.g., at pH 7.4 and/or in the presence of endogenous enzymes) once released from the LN. […] TD1-3 and TD7 were selected for loading into LN and testing of such LN for drug release in vitro.

[3] = Stability in mouse plasma; assay type: in vitro ADME; details: 24 hour incubation in mouse plasma, 37° C.
Procedure: as §1, §2

[4] = Kinetic aqueous solubility of docetaxel derivatives in acetate buffer; details: for solubility: kinetic from dmso stock
Procedure: An aliquot was diluted 10-fold with 10 mM acetate buffer (pH 5) and the pH was checked and re-adjusted as necessary to reach pH 5. Alternatively, 10 mg of each compound was weighed into a glass vial, and 2 mL of 10 mM acetate buffer (pH 5) was added to the compound, followed by sonication of the suspension for minutes. The precipitate was then removed using Microcon MY100 filters (MW cut-off 100,000 Da) and the filtrate analyzed by UPLC-UV for drug content. The measured solubilities are kinetic solubilities determined under non-equilibrium conditions.

[5] = cited from earlier work
[6] = In vitro release of docetaxel derivatives from LN in mouse plasma; assay type: in vitro ADME; details: 37° C., same prodrug-to-lipid ratio
Procedure: In vitro release of docetaxel derivatives from LN was assessed in mouse plasma. Drug retention was determined by comparison of the initial prodrug-to-lipid ratio with the prodrug-to-lipid ratios found at different time points. […] LN formulations were mixed with mouse plasma at a final lipid concentration of 0.75 mg/ml, followed by incubation at 37° C. At various time points, aliquots were taken and run over Sephadex G-50 spin columns to remove the unentrapped prodrug (Pick, Arch. Biochem. Biophys., 212:186-194 (1981)). The derivative and lipid concentrations in the eluates were determined by UHPLC and liquid scintillation counting, respectively.

[7] = 10 mM acetate buffer, pH 5, aqueous buffer
[8] = 10 mM acetate buffer with 10% (v/v) ethanol, pH 5, aqueous with cosolvent or surfactant or cyclodextrin

| SMILES | Prodrug levels (% remaining), pH 7.4 [1] | Prodrug levels (% remaining), pH 4 [2] | Prodrug levels (% remaining), Plasma [3] | Solubility in Water [5] | further results |
| --- | --- | --- | --- | --- | --- |
| CC(=O)O[C@@]12CO[C@@H]1C[C@H](O)[C@@]1(C)C(=O)[C@H](O)C3=C(C)[C@@H](OC(=O)[C@H](OC(=O)CCCN4CCOCC4)[C@@H](NC(=O)OC(C)(C)C)c4ccccc4)C[C@@](O)([C@@H](OC(=O)c4ccccc4)C12)C3(C)C (stereo partly drawn) [TD4, Morpholino butanoic acid ester] | 92% | 98% | 64% |  | solubility [4, 7]: 120 µg/mL (≈ 125 µM); Solub. in 10 mM acetate pH 5 ([4]; pH 5, no ethanol, kinetic solubility): extremely low solubility |
| CC(=O)O[C@@]12CO[C@@H]1C[C@H](O)[C@@]1(C)C(=O)[C@H](O)C3=C(C)[C@@H](OC(=O)[C@H](OC(=O)CCCCN4CCCCC4)[C@@H](NC(=O)OC(C)(C)C)c4ccccc4)C[C@@](O)([C@@H](OC(=O)c4ccccc4)C12)C3(C)C (stereo partly drawn) [TD9, Piperidinyl pentanoic acid ester] | 65% | 99% | no effect |  | Prodrug levels (% remaining), Plasma ([3]; listed as TD-9): 60%; solubility ([4]; pH 5, aqueous buffer): 1000 µg/mL (≈ 1030 µM); solubility ([4]; pH 5, aqueous with cosolvent or surfactant or cyclodextrin): 2300 µg/mL (≈ 2360 µM) |
| CC(=O)O[C@@]12CO[C@@H]1C[C@H](O)[C@@]1(C)C(=O)[C@H](O)C3=C(C)[C@@H](OC(=O)[C@H](OC(=O)CN4CCCCC4)[C@@H](NC(=O)OC(C)(C)C)c4ccccc4)C[C@@](O)([C@@H](OC(=O)c4ccccc4)C12)C3(C)C (stereo partly drawn) [TD8, Piperidinyl acetic acid ester] | 36% | 78% | 4% |  | solubility ([4]; pH 5, aqueous buffer): 500 µg/mL (≈ 536 µM) |
| CC(C)CN(C[C@@H](O)[C@H](Cc1ccccc1)NC(=O)O[C@H]1CCOC1)S(=O)(=O)c1ccc(N)cc1 [Amprenavir] |  |  |  | 36 µg/mL (≈ 71.2 µM) |  |
| C=CC[C@@H]1/C=C(\C)C[C@H](C)C[C@H](OC)[C@H]2O[C@@](O)(C(=O)C(=O)N3CCCC[C@H]3C(=O)O[C@H](/C(C)=C/[C@@H]3CC[C@@H](O)[C@H](OC)C3)[C@H](C)[C@@H](O)CC1=O)[C@H](C)C[C@@H]2OC [Tacrolimus] |  |  |  | insoluble |  |
| CC(=O)O[C@@]12CO[C@@H]1C[C@H](O)[C@@]1(C)C(=O)[C@H](O)C3=C(C)[C@@H](OC(=O)[C@H](OC(=O)CCN4CCOCC4)[C@@H](NC(=O)OC(C)(C)C)c4ccccc4)C[C@@](O)([C@@H](OC(=O)c4ccccc4)C12)C3(C)C (stereo partly drawn) [TD6, Morpholino propionic acid ester] | 18% | 68% | 0% |  | solubility [4, 8]: 1500 µg/mL (≈ 1580 µM); solubility [4, 7]: 480 µg/mL (≈ 506 µM) |
| C[C@]12C=CC(=O)C=C1CC[C@@H]1[C@@H]2C(=O)C[C@@]2(C)[C@H]1CC[C@]2(O)C(=O)CO [Prednisone] |  |  |  | 312 µg/mL (≈ 870 µM) |  |
| CC(=O)O[C@@]12CO[C@@H]1C[C@H](O)[C@@]1(C)C(=O)[C@H](O)C3=C(C)[C@@H](OC(=O)[C@H](OC(=O)CCCN4CCCCC4)[C@@H](NC(=O)OC(C)(C)C)c4ccccc4)C[C@@](O)([C@@H](OC(=O)c4ccccc4)C12)C3(C)C (stereo partly drawn) [TD7, Piperidinyl butanoic acid ester] | 13% | 94% | 8% |  | in vitro retention / release rate in DSPC/chol LN relative to TD1 [6]: released at a rate mirroring that of TD1; solubility ([4]; pH 5, aqueous buffer): 1900 µg/mL (≈ 1980 µM) |
| CC(=O)O[C@@]12CO[C@@H]1C[C@H](O)[C@@]1(C)C(=O)[C@H](O)C3=C(C)[C@@H](OC(=O)[C@H](OC(=O)CN4CCOCC4)[C@@H](NC(=O)OC(C)(C)C)c4ccccc4)C[C@@](O)([C@@H](OC(=O)c4ccccc4)C12)C3(C)C (stereo partly drawn) [TD5, Morpholino acetic acid ester] | 64% | 81% | 45% |  | solubility [4, 8]: 300 µg/mL (≈ 321 µM); solubility [4, 7]: 140 µg/mL (≈ 150 µM) |
| C[C@H](/C=C/[C@H](C)C(C)(C)O)[C@H]1CC[C@H]2/C(=C/C=C3C[C@@H](O)C[C@H](O)C3)CCC[C@]12C [Paricalcitol] |  |  |  | 6.8 µg/mL (≈ 16.3 µM) |  |
| COc1c(C)c2c(c(O)c1C/C=C(\C)CCC(=O)O)C(=O)OC2 [Mycophenolic acid] |  |  |  | insoluble |  |
| CC(C)c1cccc(C(C)C)c1O [Propofol] |  |  |  | 124 µg/mL (≈ 696 µM) |  |
| CC(=O)O[C@@]12CO[C@@H]1C[C@H](O)[C@@]1(C)C(=O)[C@H](O)C3=C(C)[C@@H](OC(=O)[C@H](OC(=O)CCCCN4CCN(C)CC4)[C@@H](NC(=O)OC(C)(C)C)c4ccccc4)C[C@@](O)([C@@H](OC(=O)c4ccccc4)C12)C3(C)C (stereo partly drawn) [TD3, N-methyl-piperazinyl pentanoic acid ester] | 69% | 99% | 29% |  | in vitro retention / release rate in DSPC/chol LN relative to TD1 [6]: released at a slightly faster rate; solubility [4, 8]: 4100 µg/mL (≈ 4140 µM); solubility [4, 7]: 2500 µg/mL (≈ 2520 µM) |
| CC(=O)O[C@@]12CO[C@@H]1C[C@H](OC(=O)CCCN1CCN(C)CC1)[C@@]1(C)C(=O)[C@H](O)C3=C(C)[C@@H](OC(=O)[C@H](O)[C@@H](NC(=O)OC(C)(C)C)c4ccccc4)C[C@@](O)([C@@H](OC(=O)c4ccccc4)C12)C3(C)C (stereo partly drawn) [TD10, 7-O-(N-methyl-piperazinylbutanoic acid ester)] |  |  |  |  | solubility ([4]; pH 5, aqueous buffer): 3000 µg/mL (≈ 3070 µM) |
| CO[C@H]1C[C@@H]2CC[C@@H](C)[C@@](O)(O2)C(=O)C(=O)N2CCCC[C@H]2C(=O)O[C@H]([C@H](C)C[C@@H]2CC[C@@H](O)[C@H](OC)C2)CC(=O)[C@H](C)/C=C(\C)[C@@H](O)[C@@H](OC)C(=O)[C@H](C)C[C@H](C)/C=C/C=C/C=C/1C [Sirolimus] |  |  |  | insoluble in water |  |
| C[C@@H]1[C@H](O)[C@@H](C)/C=C/C=C/C=C/C=C/C=C/C=C/C=C/[C@H](O[C@@H]2O[C@H](C)[C@@H](O)[C@H](N)[C@@H]2O)C[C@@H]2O[C@](O)(C[C@@H](O)C[C@@H](O)[C@H](O)CC[C@@H](O)C[C@@H](O)CC(=O)O[C@H]1C)C[C@H](O)[C@H]2C(=O)O [Amphotericin B] |  |  |  | 750 µg/mL (≈ 812 µM) |  |
| C[C@@H]1C[C@H]2[C@@H]3CCC4=CC(=O)C=C[C@]4(C)[C@@]3(F)[C@@H](O)C[C@]2(C)[C@@]1(O)C(=O)CO [Dexamethasone] |  |  |  | 89 µg/mL (≈ 227 µM) |  |
| C=C1/C(=C\C=C2/CCC[C@]3(C)[C@@H]([C@H](C)/C=C/[C@H](C)C(C)C)CC[C@@H]23)C[C@@H](O)C[C@@H]1O [Doxercalciferol] |  |  |  | relatively insoluble |  |
| CCCCC(=O)OCC(=O)[C@]1(O)Cc2c(O)c3c(c(O)c2[C@@H](O[C@H]2C[C@H](NC(=O)C(F)(F)F)[C@H](O)[C@H](C)O2)C1)C(=O)c1c(OC)cccc1C3=O [Valrubicin] |  |  |  | insoluble |  |
